Test results published in US10118947B2, “Modulation of structured polypeptide specificity” (BICYCLE THERAPEUTICS LIMITED, priority 2013, dated 2018).
Like-named read-outs stand apart in the source and are kept apart here. Numbered stars: 1 amine (or outer) side, 2 acyl side, 3 side chain; on linkers, the order of the positions; unused ones are H or OH. Bridge positions count the residues as written; N and C are the ends. Square brackets hold non-standard residues; d marks the D form. Peptide text beside a SMILES is read from it. TBMB = c1c(C[*:1])cc(C[*:3])cc1C[*:2]; hArg = N=C(N)NCCCC[C@H](N)C(=O)O; Aze = O=C(O)[C@@H]1CCN1

How the values were obtained:
human plasma Kallikrein [1] = target: T1, human plasma Kallikrein (Homo sapiens, UniProt P03952); test: Functional enzyme inhibition assay with fluorogenic substrate Z-PheArg-AMC, human plasma Kallikrein; format: biochemical; details: for F (Kivar/KiWT): ratio of Ki to wild type
T1 construct: purchased Stratech, UK
T1 sequence (P03952 20-638): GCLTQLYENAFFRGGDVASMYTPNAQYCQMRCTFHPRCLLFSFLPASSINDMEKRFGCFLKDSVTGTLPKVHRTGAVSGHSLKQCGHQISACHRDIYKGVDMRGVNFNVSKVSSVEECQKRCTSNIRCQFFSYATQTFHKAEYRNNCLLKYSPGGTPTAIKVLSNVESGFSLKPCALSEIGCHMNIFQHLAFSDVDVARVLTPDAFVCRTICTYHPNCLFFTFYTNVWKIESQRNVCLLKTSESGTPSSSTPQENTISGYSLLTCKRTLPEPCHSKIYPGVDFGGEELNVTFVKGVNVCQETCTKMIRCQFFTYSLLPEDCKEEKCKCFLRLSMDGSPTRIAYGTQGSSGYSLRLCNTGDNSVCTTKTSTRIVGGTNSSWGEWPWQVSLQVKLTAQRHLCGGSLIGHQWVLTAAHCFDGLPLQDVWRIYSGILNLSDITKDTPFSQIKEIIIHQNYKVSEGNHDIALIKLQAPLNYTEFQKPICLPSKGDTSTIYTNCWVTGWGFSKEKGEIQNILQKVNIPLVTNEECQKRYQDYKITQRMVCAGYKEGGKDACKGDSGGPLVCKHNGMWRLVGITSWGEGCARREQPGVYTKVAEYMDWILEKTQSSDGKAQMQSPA
Method in brief: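 Rates of AMC release (excitation 360 nm, emission 460 nm) from 100 μM final Z-PheArg-AMC, 4% DMSO, were taken over the linear phase, typically 5 to 45 minutes. IC50 from four-parameter non-linear regression; Ki also derived.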

rat plasma Kallikrein [2] = target: T2, rat plasma Kallikrein (Rattus norvegicus, UniProt P14272); test: Functional enzyme inhibition assay with fluorogenic substrate Z-PheArg-AMC, rat plasma Kallikrein; format: biochemical; details: Table 26b, loop 1 and loop 2 modified derivatives
T2 construct: polyhistidine tag (N, cleaved yes); proTEV cleavage site (pro-peptide linker) (N, cleaved yes); made in house; host or cells: HEK-293 (suspension-adapted)
T2 sequence (P14272 391-638 limits assumed): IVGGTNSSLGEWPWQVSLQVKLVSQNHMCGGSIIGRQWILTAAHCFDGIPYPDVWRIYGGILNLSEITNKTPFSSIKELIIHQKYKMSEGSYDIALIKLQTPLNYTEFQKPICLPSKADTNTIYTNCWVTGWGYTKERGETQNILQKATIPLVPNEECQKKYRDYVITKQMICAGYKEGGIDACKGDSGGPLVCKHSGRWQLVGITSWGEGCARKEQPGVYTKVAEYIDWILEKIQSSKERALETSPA
Description: Functional enzyme assays were conducted in 10 mM Tris HCl, 150 mM NaCl, 10 mM MgCl2, 1 mM CaCl2) and 1 mg/mL BSA (all Sigma UK) pH7.4 at 25° C. in solid black 96 well plates. Briefly 26.5 pM human plasma Kallikrein (purchased from Stratech, UK) or 500 pM rat plasma Kallikrein (expressed and purified in house) were incubated in the absence or presence of increasing concentrations of test peptide for 15 minutes before addition of the fluorogenic substrate Z-PheArg-AMC (Enzo Lifesciences UK) to a final assay concentration of 100 μM in 4% DMSO. Release of AMC was measured using a Pherastar FS (BMG Labtech), excitation 360 nm, emission 460 nm. The rate of the linear phase of the reaction, typically 5 to 45 minutes, was calculated in MARS data analysis software (BMG labtech). The rate was then used to calculate the IC50 and Ki in Prism (GraphPad). A four parameter inhibition non-linear regression equation was used to calculate the IC50.
Peptides were dissolved as the TFA-salts in their powder form, and stock solutions were usually prepared in water. All solutions were centrifuged and filtered ([…] syringe filters) prior absorption measurement at 280 nm. Extinction coefficients were calculated based on the Trp/Tyr content of the peptide, and that of TMB (the TMB core, when contained in a peptide, has an ε of ˜300 M^−1cm^−1). For peptides containing non-natural amino acids with suspected chromophoric properties (i.e. NorHar, 4PhenylPro, 3Pal, 4Pal, Tic, 4GuanPhe, 4,4-BPAI, 3,3-DPA, 1NAI, 2NAI, 4BenzylPro, Ind) concentrations were determined by weighing the powder and dissolving the peptide in a defined quantity of water.

[3] = Plasma stability profiling Method #1 (MALDI-TOF, 35% plasma), rat plasma; format: in vitro ADME; details: for stability in rat plasma compared to wildtype peptide: MALDI TOF assay (Methods #1 and #2), t=0, 21 and 46 hrs
Method in brief: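 Qualitative test: 200 µM peptide incubated at 37 °C in 35% rat or human citrated plasma supplemented with PBS, sampled at 0, 3, 24 h then daily up to 10 days. Parent mass tracked by MALDI-TOF; value is time until parent peptide no longer detectable.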

[4] = Plasma stability profiling Method #1 (MALDI-TOF, 35% plasma), human plasma; format: in vitro ADME; details: MALDI TOF assay (Methods #1 and #2), t=0, 21 and 46 hrs
Description: A rapid plasma stability profiling assay was developed that employed mass spectrometric detection (MALDI-TOF, Voyager DE, Applied Biosystems) of the parent mass, until the time when the parent peptide mass was no longer observable. Specifically, 200 uM of peptide was incubated in the presence of 35% rat or human plasma (Sera labs, using citrate as anticoagulant) at 37 deg C., which was supplemented with 1×PBS (derived from a 10×PBS Stock, Sigma). […] Samples were frozen at −80 deg C. until the time of analysis. For mass spectrometric analysis that determines the approximate detection window of the peptide, the acetonitrile:H2O-diluted sample of a given time point was spotted directly (0.7 uL) onto the MALDI plate. Matrix (alpha-cyanocinnamic acid, Sigma, prepared as a saturated solution in 1:1 acetonitrile:water containing 0.1% trifluoroacetic acid) was layered over the sample (1 uL). At a similar laser intensity setting on the MALDI TOF, the time could then be determined until parent peptide was no longer detectable. It should be noted that this is a qualitative assay serves to detect relative changes in plasma stability.

[5] = Intravenous pharmacokinetics in Sprague Dawley rats; format: in vivo; details: rat; for half-life: iv, 5.2 mg/kg
Description: Peptides were applied as intravenous boli in PBS-buffered solution at 1.02 mg/mL (containing 2.9% DMSO) at 5.2 mg/kg to Sprague Dawley rats, and serial blood samples were taken from each animal via temporary indwelling tall vein cannulae at 5, 10, 20, 30, 60, 120, and 240 minutes post dose, and transferred to EDTA tubes for plasma generation. Data was acquired for peptide “all D Ac-06-34-18” from 3 rats, for “Ac-(06-34-18) Phe2 Aze3 Tyr4 HArg5 Ala(ψCH2NH)6” from two rats, and for “Ac-(06-34-18) Phe2 Aze3 Tyr4 HArg5 D-Asp9” from two rats.
Plasma samples were then treated with 3 volumes of a 1:1 mixture of acetonitrile and methanol, precipitated proteins were removed by centrifugation, and the supernatant was analysed by UPLC-MS/MS.
Quantification for peptide content in the samples was by reference to a calibration line prepared in control rat plasma. Pharmacokinetic parameters were determined by non-compartmental analysis using the software package PK Solutions 2.0 from Summit Research Services.

[6] = Quantitative plasma stability Method #3 (LC-MS, 95% plasma), rat plasma; format: in vitro ADME; details: for half-life at 5 uM: rat, plasma
Description: (§1) To obtain plasma stability quantitatively, peptide stock solutions (1 mM in DMSO) were shipped to Biofocus, UK, who performed the analysis. Peptides were diluted to 100 uM with water, and diluted 1:20 in plasma (5 uM final concentration, with the plasma at 95%), sampled as appropriate, precipitated as above, and quantified using a Waters Xevo TQ-MS.

human plasma Kallikrein [7] = target: T1, human plasma Kallikrein; details: Table 1, as disclosed in PCT/EP2012/069898; cited from earlier work
rat plasma Kallikrein [8] = target: T2, rat plasma Kallikrein
[9] = Table 1; Method #3; cited from earlier work
human PK (hPK) = human PK (hPK) (Homo sapiens, UniProt P03952); details: cited from earlier work
Chain of human PK (hPK) (P03952 20-638): as the sequence (P03952 20-638) above

rat PK = rat PK (Rattus norvegicus, UniProt P14272); details: highest concentration tested (10 μM); cited from earlier work
Chain of rat PK (P14272 20-638): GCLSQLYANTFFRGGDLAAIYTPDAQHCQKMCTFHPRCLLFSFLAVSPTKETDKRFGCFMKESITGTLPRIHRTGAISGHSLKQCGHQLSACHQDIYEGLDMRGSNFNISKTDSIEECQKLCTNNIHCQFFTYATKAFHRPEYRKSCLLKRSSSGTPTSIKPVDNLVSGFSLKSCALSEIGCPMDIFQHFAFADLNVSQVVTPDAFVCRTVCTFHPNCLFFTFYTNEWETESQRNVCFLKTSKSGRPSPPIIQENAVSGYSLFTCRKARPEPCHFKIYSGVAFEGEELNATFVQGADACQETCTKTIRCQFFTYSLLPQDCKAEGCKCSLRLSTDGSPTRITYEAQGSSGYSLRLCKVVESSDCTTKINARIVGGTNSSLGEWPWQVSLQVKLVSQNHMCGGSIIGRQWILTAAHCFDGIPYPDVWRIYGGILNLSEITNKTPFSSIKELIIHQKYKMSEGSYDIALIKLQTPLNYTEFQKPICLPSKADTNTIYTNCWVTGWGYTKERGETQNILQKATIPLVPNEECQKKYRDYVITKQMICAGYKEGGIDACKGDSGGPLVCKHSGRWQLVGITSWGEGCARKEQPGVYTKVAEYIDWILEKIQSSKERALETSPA

factor XIa (hfXIa) = factor XIa (hfXIa) (Homo sapiens, UniProt P03951); details: highest concentration tested (10 μM); cited from earlier work
Chain of factor XIa (hfXIa) (P03951 388-625 limits assumed): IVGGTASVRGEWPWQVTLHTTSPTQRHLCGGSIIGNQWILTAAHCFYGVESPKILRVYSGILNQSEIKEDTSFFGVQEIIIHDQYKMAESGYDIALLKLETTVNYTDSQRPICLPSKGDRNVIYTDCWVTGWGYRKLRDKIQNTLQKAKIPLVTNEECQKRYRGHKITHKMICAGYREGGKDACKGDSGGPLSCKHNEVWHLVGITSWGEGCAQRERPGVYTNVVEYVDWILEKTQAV
Chain of factor XIa (hfXIa) (P03951 19-387 partner limits assumed): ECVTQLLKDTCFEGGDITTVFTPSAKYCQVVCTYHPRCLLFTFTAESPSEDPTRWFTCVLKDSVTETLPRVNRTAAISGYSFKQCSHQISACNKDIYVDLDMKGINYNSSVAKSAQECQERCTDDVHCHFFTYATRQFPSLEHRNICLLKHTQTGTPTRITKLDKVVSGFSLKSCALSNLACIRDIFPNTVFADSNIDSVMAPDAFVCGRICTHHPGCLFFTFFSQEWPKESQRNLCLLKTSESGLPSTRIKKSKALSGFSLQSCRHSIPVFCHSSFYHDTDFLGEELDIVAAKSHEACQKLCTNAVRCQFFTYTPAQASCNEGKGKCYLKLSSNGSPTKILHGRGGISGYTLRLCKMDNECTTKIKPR

thrombin = thrombin (Homo sapiens, UniProt P00734); details: highest concentration tested (10 μM); cited from earlier work
[10] = Plasma stability / fragment profiling Method #2 (MALDI-TOF, 95% plasma), human plasma; format: in vitro ADME
Method in brief: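 Peptide at 50 uM final in 95% human plasma without PBS; timed samples frozen at −80 °C, then extracted with 1:1 acetonitrile:methanol. Supernatant mixed with 30 mM ammonium bicarbonate and analysed by MALDI-TOF; qualitative fragment profiling of relative stability over time.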

[11] = Quantitative plasma stability Method #3 (LC-MS, 95% plasma), human plasma; format: in vitro ADME; details: Table 2, ex vivo human plasma, read-out: Human Plasma Stability (t½ in hrs) (converted)
Description: as §1

[12] = Table 1; Method #1; cited from earlier work
[13] = Sprague Dawley, plasma, intravenous bolus 5.2 mg/kg, read-out: elimination half-life
[14] = Sprague Dawley, plasma, intravenous, read-out: t1/2 elimination

In the case of CC(=O)N[C@H]1CSCc2cc3cc(c2)CSC[C@H](NC(=O)[C@H](CCCCNC(=N)N)NC(=O)[C@H](Cc2ccc(O)cc2)NC(=O)[C@@H]2CCN2C(=O)[C@H](Cc2ccccc2)NC(=O)[C@H](CO)NC1=O)C(=O)N[C@@H](CC(C)C)C(=O)N[C@@H](Cc1c[nH]cn1)C(=O)N[C@@H](CCC(N)=O)C(=O)N[C@H](CC(=O)O)C(=O)N[C@@H](CC(C)C)C(=O)N[C@H](C(N)=O)CSC3 (Ac-CSF[Aze]Y[hArg]CLHQ[dD]LC-NH2; linker 1-7-13 via TBMB), the Ki (human plasma Kallikrein [1]; Table 26b, loop 1 and loop 2 modified derivatives, read-out: Ki (nM) (human kallikrein)) is reported as 0.9 nM, the Ki (rat plasma Kallikrein [2]) is reported as 14 nM and the “stability in rat plasma compared to wildtype peptide” value [3] is reported as “remarkably enhanced stability”. For the same compound, the “stability in human plasma compared to wildtype peptide” value [4] was “remarkably enhanced stability”, the half-life [5, 13] was ~27 min and the half-life [5, 14] was 27 min.

For CC(=O)N[C@H]1CSCc2cc3cc(c2)CSC[C@H](NC(=O)[C@H](Cc2ccc(NC(=N)N)cc2)NC(=O)[C@H](C)NC(=O)[C@@H]2CCCN2C(=O)[C@H](Cc2c[nH]c4ccccc24)NC(=O)[C@H](CO)NC1=O)C(=O)N[C@@H](CC(C)C)C(=O)N[C@@H](Cc1c[nH]cn1)C(=O)N[C@@H](CCC(N)=O)C(=O)N[C@@H](CC(=O)O)C(=O)N[C@@H](CC(C)C)C(=O)N[C@H](C(N)=O)CSC3 [Ac-(06-34-18) 4GuanPhe5], the “reduction in potency/affinity compared to wildtype” value (human plasma Kallikrein [1]) was 2 fold, the Ki (human plasma Kallikrein [1]; Table 15, read-out: Ki (nM) (human kallikrein)) was 0.34 nM and the half-life at 5 uM ([6]; Table 15, method #3, read-out: t1/2 (hrs) in rat plasma (converted)) was 2.8 h. The Ki (human plasma Kallikrein [7]) was 0.34 nM, the Ki (rat plasma Kallikrein [8]; Table 1; read-out: Ki (nM) (rat kallikrein); cited from earlier work) was 3 nM and the “t1/2 (hrs) in rat plasma” value [9] was 2.8 h.

For H-ACSDRFRNCPADEALCG-NH2 [PK15], the Ki (human PK (hPK); Heinis et al. 2009, read-out: Kl human PK (hPK)) is listed as 3 nM, the IC50 (human PK (hPK); background, read-out: IC50 binding constant for human Kallikrein) is listed as 1.7 nM and the “inhibition of rat PK” value (rat PK) is listed as “did not inhibit”. The “inhibition of factor XIa (hfXIa)” value (factor XIa (hfXIa)) was “did not inhibit” and the inhibition of thrombin (thrombin) was “did not inhibit”.

In the case of CC(=O)N[C@H]1CSCc2cc3cc(c2)CSC[C@H](NC(=O)[C@H](CCCCNC(=N)N)NC(=O)[C@H](Cc2ccc(O)cc2)NC(=O)[C@@H]2CCN2C(=O)[C@H](Cc2ccccc2)NC(=O)[C@H](CO)NC1=O)C(=O)N[C@@H](C)CN[C@@H](Cc1c[nH]cn1)C(=O)N[C@@H](CCC(N)=O)C(=O)N[C@@H](CC(=O)O)C(=O)N[C@@H](CC(C)C)C(=O)N[C@H](C(N)=O)CSC3, the “stability in rat plasma compared to wildtype peptide” value [3] is reported as “remarkably enhanced stability”, the “stability in human plasma compared to wildtype peptide” value [4] is reported as “remarkably enhanced stability” and the clearance ([5]; Sprague Dawley, plasma, intravenous bolus 5.2 mg/kg) is reported as 5.8 mL/min/kg. For the same compound, the half-life [5, 13] was 48 min, the half-life [5, 14] was 48 min and the “Clearance based on AUC0-∞” value ([5]; intravenous) was 6.2 mL/min/kg. The “Volume of distribution based on AUC0-∞” value ([5]; intravenous) was 0.44 L/kg.

For CC(=O)N[C@H]1CSCc2cc3cc(c2)CSC[C@H](NC(=O)[C@H](CCCNC(=N)N)NC(=O)[C@H](Cc2ccc(O)cc2)NC(=O)[C@@H]2CCCN2C(=O)[C@H](Cc2ccccc2)NC(=O)[C@H](CO)NC1=O)C(=O)N[C@@H](CC(C)C)C(=O)N[C@@H](Cc1c[nH]cn1)C(=O)N[C@@H](CCC(N)=O)C(=O)N[C@@H](CC(=O)O)C(=O)N[C@@H](CC(C)C)C(=O)N[C@H](C(N)=O)CSC3 [Ac-(06-34-18) Phe2 Tyr4] (Ac-CSFPYRCLHQDLC-NH2; linker 1-7-13 via TBMB), the Ki (human plasma Kallikrein [1]; Ki (nM) (human kallikrein), Table 26a, loop2 stability enhanced candidates) was 0.9 nM, the Ki (human plasma Kallikrein [1]; Ki (nM) human Kai, Table 2) was 0.42 nM and the “F (Kivar/KiWT)” value (human plasma Kallikrein [1]; Table 3a) was 1. The “F (Kivar/KiWT)” value (human plasma Kallikrein [1]; Table 24b) was 1, the “Observable in rat plasma, for days” value ([3]; Table 21, method #1) was 2 days and the “Observable in rat plasma, for days” value ([3]; Table 23, comparative stabilities estimated according to method #1) was 2 days. For the same compound, the “Fragments (human plasma)” value ([10]; Table 3a, peptide fragments observed after incubation in human plasma) was “-LHQ”, the “degradation / fragments in human plasma (in words)” value ([10]; running text and figure legends) was “fragments with His7-Gln8, Leu6, and Leu6-His7-Gln8 removed” and the “Rat Plasma Stability (t½ in hrs)” value ([6]; Table 2, ex vivo rat plasma, Method #3) was 54 min. For the same compound, the “t1/2 (hrs) in rat plasma” value ([6]; Table 23, method #3) was 0.9 h, the half-life at 5 uM ([6]; method #3, read-out: half-life in rat plasma (t1/2) (converted)) was 0.9 h and the half-life at 5 uM [11] was 84 min. For the same compound, the Ki (rat plasma Kallikrein [8]; read-out: Ki (nM) (rat kallikrein); Table 1; cited from earlier work) was 7.6 nM, the “Observable in rat plasma, for days” value [12] was 2 days and the “t1/2 (hrs) in rat plasma” value [9] was 0.9 h.
